Test results reported in EP2404925A1, “New all trans platinum (IV) complexes, their preparation and their use as antitumor agents” (Universidad Autónoma de Madrid, priority 2010, dated 2012).

Tests used:
CCRF-CEM = assay: In vitro antiproliferative assay (14C-thymidine uptake), CEM cells; assay type: cell-based, human; conditions: 72 h incubation, then 14C-thymidine uptake recorded 24 h later
Description: (§1) • CCRF-CEM is a human T-cell leukemia cell line (DSMZ ref ACC 240), established in 1964 from peripheral blood of young child bearing a terminal-stage ALL (Foley et al., Cancer 18: 522-529 (1965)). • NCI-H460 is a human epidermoïd lung tumour cell line, obtained from the NCI (NCI-Frederick. Tumor Bank). • MX1 is a human mammary carcinoma tumour, harbouring BRCA1 mutation, obtained from NCI (NCI-Frederick. Tumor Bank).
(§2) Tumour cells were grown in appropriate culture medium, either RPMI-1640 or DMEM, complemented with 10% calf-fetal serum and antibiotics.
(§3) Cell proliferation was evaluated by ^14C-thymidine uptake in DNA. Exponentially growing cells - from 5.10^3 to 10^4 per well in 180 µL culture medium - were introduced in a 96-wells microtitration Cytostar-T apparatus (GE Healthcare Bio-Sciences, Uppsala, Sweden). After 4 hours pre-incubation under CO2 atmosphere at 37°C, compounds were added in 10 µL volume. After incubation for an additional 72 hours period, 0.1 µCi ^14C-thymidine was added in each well, C^14 -thymidine uptake was recorded 24 hours later on a scintillation counter (Perkin-Elmer Life Sciences, Boston, MA, USA). IC50, defined as the dose which inhibits 50% of cell proliferation, were thus determined.

NCI-H460 = assay: In vitro antiproliferative assay (14C-thymidine uptake), H460 cells; assay type: cell-based, human; conditions: 72 h incubation, then 14C-thymidine uptake recorded 24 h later
Description: as §1, §2, §3

[1] = Toxicity (body weight loss, drug deaths) in the MX1 tumor model study; assay type: in vivo, SCID mice
Description: (§4) 7 to 8 weeks-old female SCID mice, obtained from Charles River (L'Arbresle, Lyon , France) were acclimated for at least 1 week previous experiment.
(§5) When ΔT/ΔC values are negative, the percentage of regression is evaluated. A Partial regression (PR) is defined as a decrease in tumor volume greater than or equal to 50% of the tumor volume at start of treatment. A Complete regression (CR) is defined as a decrease in tumor volume below the limit of palpation (T=10mm^3). At the end of the study, the number of tumor free survivor (TFS) which correspond to mice without any detectable tumor is determined. Both drug-related deaths and maximum percent relative mean net body weight loss are also determined. A body weight loss (mean of group) of greater than 15% for more than 3 consecutive days or 20% weight loss for one day or 10% drug deaths are considered to indicate an excessively toxic dosage.

MX1 tumor = assay: In vivo antitumor evaluation in MX1 tumor model; design: species or system SCID mice; conditions: for SRI activity rating: day 10 to day 15 post tumor implantation
Excerpt: as §1, §4
Animals, placed under normal light cycle, had then ad libitum access to food and water. MX1 cells, 10^7 cells per mouse initially grown in RPMI medium supplemented with 10% foetal-calf serum and antibiotics, were subcutaneously implanted in mice. When […] tumour volume was reached, fragments (2-3 mm diameter) were cut, placed in phosphate buffer (PBS), bilaterally implanted and further passaged in mice until tumour growth rate is stable, before starting the experiment. Tumors were measured with a caliper twice weekly until the tumor reached 2000 mm^3 or until the animal died (which ever come first). Tumor volumes were estimated from 2 dimensional measurements: Volume (in mm^3) = (a x b^2)/2, where a and b are the tumor length and width (mm) respectively. The variation from the baseline of the tumoral volume is calculated in the treated and control group. These values are used to calculate the median in the treated group (ΔT) and in the control group (ΔC). ΔT/ΔC, expressed as a percentage, is the ratio of median at a chosen day (the last day before it becomes necessary to sacrifice control mice owing to tumor size). ΔT/ΔC values can be translated into an activity rating, according to the Southern Research Institute (SRI) criteria:
as §5

[2] = i.v. daily during 5 days at 5 mg/kg
[3] = i.v. daily during 5 days at 10 mg/kg
[4] = i.v. daily during 5 days at 5 mg/kg (25 mg/kg total dose)
[5] = i.v. daily during 5 days at 10 mg/kg (50 mg/kg total dose)

Compound: N.N.[Cl][Pt][Cl] [cisplatin, reference compound]
- IC50 (CCRF-CEM): 400 to 800 nM
- IC50 (NCI-H460): 2600 to 4000 nM

Compound: O=C1[O][Pt]2([NH][C@@H]3CCCC[C@H]3[NH]2)[O]C1=O [oxaliplatin, reference compound]
- IC50 (CCRF-CEM): 4000 nM
- IC50 (NCI-H460): 2400 nM

Compound: CC(=O)[O][Pt]([NH2])([Cl])([Cl])([NH]C1CCCCC1)[O]C(C)=O [satraplatin, reference compound]
- IC50 (CCRF-CEM): 400 nM
- IC50 (NCI-H460): 190 nM

Compound: Trans-trans-trans-{PtCl2(OH)2(dimethylamine)[(exo)-2- norbornylamine]} [EXAMPLE 3]
- IC50 (CCRF-CEM): 31 nM
- IC50 (NCI-H460): 315 nM

Compound: Trans-trans-trans-{PtCl2(OH)2(isopropylamine)[(rac)-(endo)-norbornylamine]} [EXAMPLE 2]
- IC50 (CCRF-CEM): 25 nM
- IC50 (NCI-H460): 255 nM

Compound: Trans-trans-trans-{PtCl2(OH)2(isopropylamine)[(rac)-(exo)-norbornylamine]} [EXAMPLE 1]
- toxicity for mice ([1]; 20 mg/kg): toxic
- deaths ([1]; 20 mg/kg, deaths on days 17, 19, 20, 21 and 24 (2 mice)): 6/6
- body weight loss [1, 2]: 4%
- drug death [1, 2]: no drug death
- body weight loss [1, 3]: 12%
- drug death [1, 3]: no drug death
- maximal tolerated dose ([1]; i.v., daily for 5 days schedule): 10 mg/kg
- IC50 (CCRF-CEM): 53 nM
- IC50 (NCI-H460): 532 nM
- CR (complete regression) (MX1 tumor; [2]): 100%
- ΔT/ΔC (MX1 tumor; [4]): < 0%
- SRI activity rating (MX1 tumor; [4]): highly active
- CR (complete regression) (MX1 tumor; [3]): 100%
- TFS (tumor free survivor) at the end of the study (MX1 tumor; [3]): 2
- ΔT/ΔC (MX1 tumor; [5]): < 0%
- SRI activity rating (MX1 tumor; [5]): highly active
